These compounds were tested against T1, recombinant human MCHR1-receptors (Homo sapiens, UniProt Q99705) (assay: MCHR filter binding assay (competition binding)). Settings: membranes from CHO-K1 cells expressing human MCHR1; 0.2 nM [Phe13,[125I]Tyr19]-MCH; read-out: IC50 (nM), in vitro activity (binding assay).
T1 construct: expressed in transfected cells
How it was run: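 Membranes from CHO-K1 cells stably expressing human MCHR1 (2.8 μg) preincubated 15 min with competitor, then 1 h at rt with 0.2 nM [Phe13,[125I]Tyr19]-MCH in HEPES/CaCl2/BSA/phenanthroline/Triton buffer. Bound radioactivity counted after rapid filtration over PVP/BSA-treated GF/B filters.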

T1 sequence (Q99705 whole entry): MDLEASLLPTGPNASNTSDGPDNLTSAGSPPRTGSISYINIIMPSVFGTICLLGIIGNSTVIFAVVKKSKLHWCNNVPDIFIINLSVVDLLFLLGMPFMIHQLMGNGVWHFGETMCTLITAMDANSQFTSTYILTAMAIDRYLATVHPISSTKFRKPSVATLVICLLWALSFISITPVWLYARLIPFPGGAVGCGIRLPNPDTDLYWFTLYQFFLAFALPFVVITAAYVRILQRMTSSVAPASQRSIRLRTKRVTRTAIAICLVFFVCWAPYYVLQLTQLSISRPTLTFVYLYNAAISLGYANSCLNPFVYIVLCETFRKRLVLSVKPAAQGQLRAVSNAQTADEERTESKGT

**Q.** For Cc1cc2ncn(C3CCN(CC4Cc5ccc(F)cc5C4)CC3)c2cc1F (stereo not drawn) [Example 106, 6-Fluoro-1-[1-(5-fluoro-indan-2-ylmethyl)-piperidin-4-yl]-5-methyl-1H-benzoimidazole], which IC50 is on record?
**A.** Its IC50 is 20 to 200 nM.

**Q.** With CO[C@@H]1CN(CC2Cc3ccccc3C2)CC[C@H]1n1c(C(C)(C)O)nc2cc(C)ccc21 [Example 107, 2-[1-((3R,4R)-1-Indan-2-ylmethyl-3-methoxy-piperidin-4-yl)-5-methyl-1H-benzoimidazol-2-yl]-propan-2-ol] as the compound, how does the IC50 read?
**A.** The IC50 was 20 to 200 nM.

**Q.** With CO[C@@H]1CN(C[C@H]2Cc3ccc(F)cc3C2)CC[C@H]1n1c(C(C)(C)O)nc2cc(C)ccc21 [Example 108, 2-{1-[(3R,4R)-1-((S)-5-Fluoro-indan-2-ylmethyl)-3-methoxy-piperidin-4-yl]-5-methyl-1H-benzoimidazol-2-yl}-propan-2-ol] as the compound, how does the IC50 read?
**A.** Its IC50 is 20 to 200 nM.

**Q.** For CO[C@@H]1CN(C[C@@H]2Cc3ccc(F)cc3C2)CC[C@H]1n1c(C(C)(C)O)nc2cc(C)ccc21 [Example 109, 2-{1-[(3R,4R)-1-((R)-5-Fluoro-indan-2-ylmethyl)-3-methoxy-piperidin-4-yl]-5-methyl-1H-benzoimidazol-2-yl}-propan-2-ol], which IC50 is on record?
**A.** Its IC50 is 20 to 200 nM.

**Q.** CO[C@@H]1CN(CC2Cc3ccc(C)cc3C2)CC[C@H]1n1c(C(C)(C)O)nc2cc(F)ccc21 (stereo partly drawn) [Example 110, 2-{5-Fluoro-1-[(3R,4R)-3-methoxy-1-(5-methyl-indan-2-ylmethyl)-piperidin-4-yl]-1H-benzoimidazol-2-yl}-propan-2-ol] was tested. Which IC50 did it give?
**A.** The IC50 was 20 to 200 nM.

**Q.** Which IC50 does the source give for CO[C@@H]1CN(C[C@H]2Cc3ccc(Br)cc3C2)CC[C@H]1n1c(C(C)(C)O)nc2cc(F)ccc21 [Example 111, 2-{1-[(3R,4R)-1-((S)-5-Bromo-indan-2-ylmethyl)-3-methoxy-piperidin-4-yl]-5-fluoro-1H-benzoimidazol-2-yl}-propan-2-ol] here?
**A.** Its IC50 is 20 to 200 nM.

**Q.** How did the IC50 turn out when CO[C@@H]1CN(C[C@H]2Cc3ccc(Cl)cc3C2)CC[C@H]1n1c(C(C)(C)O)nc2cc(C)ccc21 [Example 112, 2-{1-[(3R,4R)-1-((S)-5-Chloro-indan-2-ylmethyl)-3-methoxy-piperidin-4-yl]-5-methyl-1H-benzoimidazol-2-yl}-propan-2-ol] was run?
**A.** Its IC50 is 20 to 200 nM.

**Q.** Which IC50 does the source give for CO[C@@H]1CN(C[C@@H]2Cc3ccc(Cl)cc3C2)CC[C@H]1n1c(C(C)(C)O)nc2cc(C)ccc21 [Example 113, 2-{1-[(3R,4R)-1-((R)-5-Chloro-indan-2-ylmethyl)-3-methoxy-piperidin-4-yl]-5-methyl-1H-benzoimidazol-2-yl}-propan-2-ol] here?
**A.** Its IC50 is < 20 nM.

**Q.** With Cc1ccc2c(c1)CC(CN1CC[C@@H](n3c(C(C)(C)O)nc4cc(C)ccc43)[C@H](O)C1)C2 (stereo partly drawn) [Example 114, (3R,4R)-4-[2-(1-Hydroxy-1-methyl-ethyl)-5-methyl-benzoimidazol-1-yl]-1-(5-methyl-indan-2-ylmethyl)-piperidin-3-ol] as the compound, how does the IC50 read?
**A.** The IC50 was 20 to 200 nM.

**Q.** Which IC50 does the source give for CO[C@@H]1CN(C[C@@H]2Cc3ccc(Br)cc3C2)CC[C@H]1n1c(C(C)(C)O)nc2cc(C)ccc21 [Example 115, 2-{1-[(3R,4R)-1-((R)-5-Bromo-indan-2-ylmethyl)-3-methoxy-piperidin-4-yl]-5-methyl-1H-benzoimidazol-2-yl}-propan-2-ol] here?
**A.** Its IC50 is 20 to 200 nM.

**Q.** How did the IC50 turn out when CO[C@H]1CN(C[C@@H]2Cc3ccc(Br)cc3C2)CC[C@@H]1n1c(C(C)(C)O)nc2cc(C)ccc21 [Example 116, 2-{1-[(3S,4S)-1-((R)-5-Bromo-indan-2-ylmethyl)-3-methoxy-piperidin-4-yl]-5-methyl-1H-benzoimidazol-2-yl}-propan-2-ol] was run?
**A.** The IC50 was 20 to 200 nM.

**Q.** For CO[C@@H]1CN(CC2Cc3ccc(C)cc3C2)CC[C@H]1n1c(C(C)(C)O)nc2cc(C)ccc21 (stereo partly drawn) [Example 117, 2-{1-[(3R,4R)-3-Methoxy-1-(5-methyl-indan-2-ylmethyl)-piperidin-4-yl]-5-methyl-1H-benzoimidazol-2-yl}-propan-2-ol], which IC50 is on record?
**A.** Its IC50 is 20 to 200 nM.

**Q.** CO[C@@H]1CN(CC2Cc3ccc(F)cc3C2)CC[C@H]1n1cnc2cc(C)ccc21 (stereo partly drawn) [Example 118, 1-[(3R,4R)-1-(5-Fluoro-indan-2-ylmethyl)-3-methoxy-piperidin-4-yl]-5-methyl-1H-benzoimidazole] was tested. Which IC50 did it give?
**A.** Its IC50 is 200 to 5000 nM.

**Q.** For CO[C@@H]1CN(CC2Cc3ccncc3C2)CC[C@H]1n1c(C)nc2cc(C)ccc21 (stereo partly drawn) [Example 119, 1-[(3R,4R)-1-(6,7-Dihydro-5H-[2]pyrindin-6-ylmethyl)-3-methoxy-piperidin-4-yl]-2,5-dimethyl-1H-benzoimidazole], which IC50 is on record?
**A.** The IC50 was 20 to 200 nM.

**Q.** CS(=O)(=O)c1ccc2c(c1)nc(C(F)(F)F)n2C1CCN(C[C@H]2Cc3ccc(Br)cc3C2)CC1 [Example 121, 1-[1-((S)-5-Bromo-indan-2-ylmethyl)-piperidin-4-yl]-5-methanesulfonyl-2-trifluoromethyl-1H-benzoimidazole] was tested. Which IC50 did it give?
**A.** The IC50 was 20 to 200 nM.

**Q.** Which IC50 does the source give for CO[C@@H]1CN(C[C@H]2Cc3ccc(Br)cc3C2)CC[C@H]1n1c(C(C)(C)O)nc2cc(C)c(F)cc21 [Example 123, 2-{1-[(3R,4R)-1-((S)-5-Bromo-indan-2-ylmethyl)-3-methoxy-piperidin-4-yl]-6-fluoro-5-methyl-1H-benzoimidazol-2-yl}-propan-2-ol] here?
**A.** The IC50 was < 20 nM.

**Q.** How did the IC50 turn out when Cc1cc2nc(C(C)(C)O)n(C3CCN(C[C@H]4Cc5ccc(Br)cc5C4)CC3)c2cc1F [Example 124, 2-{1-[1-((S)-5-Bromo-indan-2-ylmethyl)-piperidin-4-yl]-6-fluoro-5-methyl-1H-benzoimidazol-2-yl}-propan-2-ol] was run?
**A.** The IC50 was < 20 nM.

**Q.** “N-(2-{2-[4-(2,5-Dimethyl-benzoimidazol-1-yl)-piperidin-1-yl]-ethyl}-indan-5-yl)-isobutyramide [Example 58]” was tested. Which IC50 did it give?
**A.** Its IC50 is 200 to 5000 nM.

**Q.** For “N-{(R)-2-[(3R,4R)-4-(2,5-Dimethyl-benzoimidazol-1-yl)-3-methoxy-piperidine-1-carbonyl]-indan-5-yl}-isobutyramide [Example 57]”, which IC50 is on record?
**A.** The IC50 was 200 to 5000 nM.

**Q.** For “{(R)-2-[4-(2-tert-Butyl-5-methyl-benzoimidazol-1-yl)-piperidin-1-ylmethyl]-indan-5-yl}-methyl-amine [Example 56]”, which IC50 is on record?
**A.** The IC50 was 200 to 5000 nM.

Same assay, conditions: membranes from CHO-K1 cells expressing human MCHR1; 0.2 nM [Phe13,[125I]Tyr19]-MCH; read-out: IC50 (nM), selected in vitro MCH-R binding data

**Q.** With Cc1cc2ncn(C3CCN(CC4Cc5ccc(F)cc5C4)CC3)c2cc1F (stereo not drawn) [Example 106, 6-Fluoro-1-[1-(5-fluoro-indan-2-ylmethyl)-piperidin-4-yl]-5-methyl-1H-benzoimidazole] as the compound, how does the IC50 read?
**A.** Its IC50 is 194 nM.

Reference: US7803816B2, “MCH receptor antagonists” (Hoffmann-La Roche Inc., priority 2005, dated 2010)
